Assay results as given in ChEMBL document CHEMBL5360575, “Broad-spectrum coronavirus 3C-like protease peptidomimetic inhibitors effectively block SARS-CoV-2 replication in cells: Design, synthesis, biological evaluation, and X-ray structure determination” (Eur J Med Chem, 2023).

Tests used:
SARS-CoV-2 [1] = assay: microbe, parasite or virus in culture; details: Severe acute respiratory syndrome coronavirus 2, […], Vero C1008
[2] = test system: Middle East respiratory syndrome-related coronavirus; assay: microbe, parasite or virus in culture; details: Vero C1008, 96 h
Human coronavirus 229E = assay: microbe, parasite or virus in culture; details: BEAS-2B
[3] = Inhibition of MERS 3CL protease expressed in Escherichia coli BL21(DE3) cells using DABCYL-KTSAVLQSGFRKM-EDANS as substrate preincubated for 30 mins followed by substrate addition and measured after 30 mins by FRET assay; set-up: species or system Middle East respiratory syndrome-related coronavirus
SARS-CoV-2 [4] = assay: microbe, parasite or virus in culture; details: Severe acute respiratory syndrome coronavirus 2, […], Vero C1008, 72 h
BEAS-2B = assay: Cytotoxicity against human BEAS-2B cells assessed as reduction in cell viability; format: toxicity, cell-based
[5] = molecular target: T1, Replicase polyprotein 1ab (Severe acute respiratory syndrome coronavirus 2, UniProt P0DTD1); assay: Inhibition of SARS-CoV-2 3CL protease expressed in Escherichia coli BL21(DE3) cells using DABCYL-KTSAVLQSGFRKM-EDANS as substrate preincubated for 30 mins followed by substrate addition and measured after 15 mins by FRET assay
SARS-CoV-2 [6] = details: Severe acute respiratory syndrome coronavirus 2, […], Calu-3, 48 h
[7] = molecular target: T1, Replicase polyprotein 1ab; assay: Covalent binding affinity to SARS-CoV-2 3CL protease expressed in Escherichia coli BL21(DE3) cells after 30 mins by FRET assay
[8] = molecular target: Replicase polyprotein 1ab (Severe acute respiratory syndrome coronavirus 2) (UniProt P0DTD1); details: dose 40.0 µM, time 30.0 min
[9] = Selectivity index, ratio of CC50 for human BEAS2B cells to EC50 for antiviral activity against HCoV229E infected in BEAS-2B cells; format: toxicity, cell-based; details: read-out: Ratio CC50/EC50

CC(C)[C@H](NC(=O)OC(C)(C)C)C(=O)N1CCC[C@H]1C(=O)N[C@H](C=O)C[C@@H]1CCNC1=O
EC50 (SARS-CoV-2 [1]): 22.5 µM
EC50 [2]: 4.56 µM
EC50 (Human coronavirus 229E): > 17.9 µM
IC50 [3]: 0.02 nM
EC50 (SARS-CoV-2 [4]): 16 µM
CC50 (BEAS-2B): 17.9 µM
IC50 [5]: 0.00623 µM

C[C@H](OC(C)(C)C)[C@H](NC(=O)OC(C)(C)C)C(=O)N1CCC[C@H]1C(=O)N[C@H](C=O)C[C@@H]1CCNC1=O
EC50 (SARS-CoV-2 [1]): 22.9 µM
IC50 [3]: 0.022 nM
EC50 (SARS-CoV-2 [4]): 1.86 µM
IC50 [5]: 0.0053 µM

CC(C)[C@H](NC(=O)OC(C)(C)C)C(=O)N1C[C@@H]2CCC[C@@H]2[C@H]1C(=O)N[C@H](C=O)C[C@@H]1CCNC1=O
EC50 (SARS-CoV-2 [1]): 5.3 µM
EC50 (SARS-CoV-2 [6]): 0.449 µM
EC50 (Human coronavirus 229E): 0.24 µM
Ki [7]: 0.0032 µM
IC50 [3]: 143 nM
EC50 (SARS-CoV-2 [4]): 0.21 µM
CC50 (BEAS-2B): 28.4 µM
ΔTm [8]: 4 °C
IC50 [5]: 0.005 µM

CC(C)C[C@H](NC(=O)[C@@H](NC(=O)OC(C)(C)C)C(C)C)C(=O)N[C@H](C=O)C[C@@H]1CCNC1=O
EC50 (SARS-CoV-2 [1]): 40.1 µM
EC50 [2]: 1.58 µM
EC50 (Human coronavirus 229E): 2.3 µM
IC50 [3]: 0.02 nM
EC50 (SARS-CoV-2 [4]): 3.6 µM
CC50 (BEAS-2B): 70.5 µM
selectivity ratio [9]: > 30.1
IC50 [5]: 0.0007 µM

CO[C@H]1C[C@@H](C(=O)N[C@H](C=O)C[C@@H]2CCNC2=O)N(C(=O)[C@@H](NC(=O)OC(C)(C)C)C(C)C)C1
EC50 (SARS-CoV-2 [1]): 23.6 µM
EC50 [2]: 0.58 µM
EC50 (Human coronavirus 229E): > 3.6 µM
IC50 [3]: 0.007 nM
EC50 (SARS-CoV-2 [4]): 8.7 µM
CC50 (BEAS-2B): 3.6 µM
IC50 [5]: 0.00024 µM

CC(C)[C@H](NC(=O)OC(C)(C)C)C(=O)N1C[C@@H](C)C[C@H]1C(=O)N[C@H](C=O)C[C@@H]1CCNC1=O
EC50 (SARS-CoV-2 [1]): 47.2 µM
IC50 [3]: 2.33 nM
EC50 (SARS-CoV-2 [4]): 16.9 µM
IC50 [5]: 0.00047 µM

CC(C)[C@H](NC(=O)OC(C)(C)C)C(=O)N1C[C@H](OC(C)(C)C)C[C@H]1C(=O)N[C@H](C=O)C[C@@H]1CCNC1=O
EC50 (SARS-CoV-2 [1]): 33.4 µM
EC50 [2]: 33.6 µM
EC50 (Human coronavirus 229E): > 48.2 µM
IC50 [3]: 26 nM
EC50 (SARS-CoV-2 [4]): 3.4 µM
CC50 (BEAS-2B): 48.2 µM
IC50 [5]: 0.0025 µM

CC(C)[C@H](NC(=O)OC(C)(C)C)C(=O)N1CCCC[C@H]1C(=O)N[C@H](C=O)C[C@@H]1CCNC1=O
EC50 (SARS-CoV-2 [1]): > 100 µM
EC50 (SARS-CoV-2 [4]): 5.83 µM
IC50 [5]: 3.35 µM

CC(C)C[C@H](NC(=O)OCc1ccccc1)C(=O)N[C@@H](C[C@@H]1CCNC1=O)C(O)S(=O)(=O)O (stereo not given in full)
CC50 (BEAS-2B): > 100 µM
